Biological target: T1, yeast channel-forming VDAC isoform (YVDAC1) (Saccharomyces cerevisiae, UniProt P04840)
T1 construct: gene POR1; native protein from detergent (NP-40) extract of mitochondrial fraction; about 30 kDa; identified by LC/MS/MS against SGD ORF translations
T1 sequence (P04840 2-283): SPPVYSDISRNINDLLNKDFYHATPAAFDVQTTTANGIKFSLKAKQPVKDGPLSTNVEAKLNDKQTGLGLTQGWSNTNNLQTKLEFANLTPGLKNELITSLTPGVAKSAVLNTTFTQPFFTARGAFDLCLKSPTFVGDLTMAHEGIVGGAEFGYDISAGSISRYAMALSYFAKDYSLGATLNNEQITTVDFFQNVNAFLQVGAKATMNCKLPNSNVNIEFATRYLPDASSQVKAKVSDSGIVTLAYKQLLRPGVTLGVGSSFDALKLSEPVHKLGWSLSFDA
Assay type: biochemical

## COc1cc2c(cc1OC)OC(C)(C)C=C2 [Precocene II]
  affinity magnetic beads, elution and competition with free compound, SDS-PAGE, L: identification of YVDAC1 as the precocene II-binding protein in the yeast S. cerevisiae
